The target of series [1] is T1, Bifunctional epoxide hydrolase 2 (Homo sapiens, UniProt P34913).
T1 sequence (P34913 whole entry): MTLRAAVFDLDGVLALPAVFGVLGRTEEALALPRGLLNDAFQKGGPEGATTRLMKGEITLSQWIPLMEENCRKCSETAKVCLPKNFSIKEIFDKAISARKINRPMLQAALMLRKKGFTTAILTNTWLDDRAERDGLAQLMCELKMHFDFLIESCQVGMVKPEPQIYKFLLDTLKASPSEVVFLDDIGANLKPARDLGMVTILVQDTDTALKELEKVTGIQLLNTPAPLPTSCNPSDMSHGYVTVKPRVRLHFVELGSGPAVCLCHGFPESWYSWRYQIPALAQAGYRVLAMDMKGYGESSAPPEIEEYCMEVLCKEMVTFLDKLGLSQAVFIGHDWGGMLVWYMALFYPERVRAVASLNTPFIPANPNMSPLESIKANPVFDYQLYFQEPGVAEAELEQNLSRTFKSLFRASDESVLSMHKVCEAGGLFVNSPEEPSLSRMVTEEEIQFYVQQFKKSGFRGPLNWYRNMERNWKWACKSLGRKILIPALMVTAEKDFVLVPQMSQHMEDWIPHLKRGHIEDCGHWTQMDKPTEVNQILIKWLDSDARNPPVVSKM
The series is described as follows: Inhibition of recombinant human full length sEH assessed as reduction in 6-methoxy-2-naphthaldehyde formation using PHOME as substrate preincubated for 30 to 45 mins followed by substrate addition and measured after 30 to 45 mins by fluorescence assay.

Series [2] concerns the target T2, Peroxisome proliferator-activated receptor gamma (Homo sapiens) (UniProt P37231).
T2 sequence (whole entry): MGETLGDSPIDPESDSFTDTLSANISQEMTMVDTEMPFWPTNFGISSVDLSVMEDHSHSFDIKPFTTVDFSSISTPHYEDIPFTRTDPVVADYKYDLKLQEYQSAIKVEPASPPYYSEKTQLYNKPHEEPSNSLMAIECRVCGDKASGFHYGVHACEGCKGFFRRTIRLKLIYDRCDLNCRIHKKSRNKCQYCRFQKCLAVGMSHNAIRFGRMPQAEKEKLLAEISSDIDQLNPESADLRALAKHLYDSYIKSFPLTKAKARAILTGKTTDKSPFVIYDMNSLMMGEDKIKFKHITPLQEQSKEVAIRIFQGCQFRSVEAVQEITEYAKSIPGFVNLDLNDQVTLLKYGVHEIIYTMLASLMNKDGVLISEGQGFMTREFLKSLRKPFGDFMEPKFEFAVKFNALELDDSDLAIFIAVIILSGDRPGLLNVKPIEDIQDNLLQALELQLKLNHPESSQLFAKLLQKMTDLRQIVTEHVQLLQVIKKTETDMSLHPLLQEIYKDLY
The series is described as follows: Partial agonist activity at GAL4-tagged human PPARgamma LBD expressed in HEK293T cells at 10 uM incubated for 12 to 14 hrs by dual-Glo luciferase assay. The format is cell-based. The settings on record: time 12-14 hrs.

For series [3], the target named is T3, Peroxisome proliferator-activated receptor gamma (Homo sapiens, UniProt P37231).
T3 sequence (P37231 whole entry): T2 sequence (whole entry)
The series is described as follows: Partial agonist activity at GAL4-tagged human PPARgamma LBD expressed in HEK293T cells incubated for 12 to 14 hrs by dual-Glo luciferase assay. It counts as cell-based.

Series [4] in a line: Stability of compound in BALB/c mouse liver microsomes assessed as half life at 10 uM preincubated for 5 mins in presence of NADPH regenerating system followed by microsomal addition and measured upto 60 mins by HPLC analysis. The format is ADME, Microsome. The settings on record: time 65 min.
Series [5] in a line: Stability of compound in human liver microsomes assessed as half life at 10 uM preincubated for 5 mins in presence of NADPH regenerating system followed by microsomal addition and measured upto 60 mins by HPLC analysis. The format is ADME, Microsome. The settings on record: time 65 min. (Microsomes from liver hold many membrane-bound enzymes, among them those of drug oxidation.)

A short description of series [6]: Stability of compound in Sprague-Dawley rat liver microsomes assessed as half life at 10 uM preincubated for 5 mins in presence of NADPH regenerating system followed by microsomal addition and measured upto 60 mins by HPLC analysis. It counts as ADME, Microsome. As to conditions: time 65 min.

Active and inactive are the calls of the source.

The term IC50 denotes the concentration at which inhibition is half-maximal. In the case of `O=C(NCc1ccccc1C(F)(F)F)c1ccc2c(c1)[nH]c(=O)n2Cc1ccccc1`, the IC50 in series [1] turned out to be 0.082 µM. `CN(C)CCn1ccc2cc(C(=O)NCc3ccc(NS(=O)(=O)C4CC4)cc3C(F)(F)F)ccc21`: the outcome in series [2] was inactive. Moreover, the IC50 in series [1] was 0.028 µM. For `O=C(NCc1ccccc1C(F)(F)F)c1ccc2c(c1)[nH]c(=O)n2Cc1ccc(F)cc1`, in that order: “inactive” and 0.142 µM. Take `COc1ccc(CNC(=O)c2ccc3c(c2)ncn3Cc2cccc(F)c2)c(C(F)(F)F)c1`: in series [1], the half-inhibitory concentration (IC50) came out at 0.04 µM. By EC50 is commonly meant the concentration that produces a half-maximal response. A low value points to an effect from little substance. `CC(C)n1ccc2cc(C(=O)NCc3ccc(NS(=O)(=O)C4CC4)cc3C(F)(F)F)ccc21` came in with an EC50 in series [3] of 0.49 µM. Moreover, in series [1], the IC50 amounted to 0.005 µM. For `O=C(NCc1ccc(NS(=O)(=O)C2CC2)cc1C(F)(F)F)c1ccc2[nH]ccc2c1`, in that order: 1.48 µM and 0.029 µM. With `O=C(NCc1ccccc1C(F)(F)F)c1ccc2c(c1)[nH]c(=O)n2CC1CCCCC1`, the IC50 in series [1] was found to be 0.322 µM. For `COc1ccc(CNC(=O)c2ccc3c(ccn3Cc3cccc(F)c3)c2)c(C(F)(F)F)c1`, the EC50 in series [3] came to 0.85 µM. Moreover, the IC50 in series [1] came out at 0.31 µM. The term half-life denotes the time needed for the level to fall by half in the phase considered. For the compound `CC(C)Cn1ccc2cc(C(=O)NCc3ccc(NS(=O)(=O)C4CC4)cc3C(F)(F)F)ccc21`, the IC50 in series [1] turned out to be 0.002 µM. In addition, the half-life at 10 µM in series [4] was 53 min; in series [5] it was 76 min; in series [6] it was 41 min. With `O=C(NCc1ccc(NC(=O)C(F)(F)F)cc1C(F)(F)F)c1ccc2c(ccn2Cc2cccc(F)c2)c1`, in series [1], the IC50 stood at 0.005 µM.

As for `COc1ccc(CNC(=O)c2ccc3c(cnn3Cc3cccc(F)c3)c2)c(C(F)(F)F)c1`, in series [3], the EC50 amounted to 1.59 µM. Besides, the IC50 in series [1] is 0.022 µM. For `CC(C)S(=O)(=O)n1ccc2cc(C(=O)NCc3ccc(NS(=O)(=O)C4CC4)cc3C(F)(F)F)ccc21`, in that order: 1.05 µM and 0.002 µM. For the compound `O=C(NCc1ccccc1C(F)(F)F)c1ccc2c(c1)[nH]c(=O)n2Cc1ccccc1F`, in series [2], the outcome was inactive. Also, the 50% inhibitory concentration (IC50) in series [1] came out at 0.055 µM. `CS(=O)(=O)Cc1ccc(CNC(=O)c2ccc3c(ccn3Cc3cccc(F)c3)c2)c(C(F)(F)F)c1` had an EC50 in series [3] of 1.35 µM. Further, in series [1], the IC50 is 0.006 µM.

Turning to `O=C(NCc1ccccc1C(F)(F)F)c1ccc2c(c1)ncn2Cc1cccc(F)c1`, the IC50 in series [1] is 0.107 µM. Turning to `O=C(NCc1ccccc1C(F)(F)F)c1ccc2c(c1)[nH]c(=O)n2Cc1ccc(Cl)cc1`, the outcome in series [2] was inactive. Moreover, the IC50 in series [1] turned out to be 0.197 µM.

Turning to `COc1ccc(CNC(=O)c2ccc3c(c2)[nH]c(=O)n3Cc2ccccc2)c(C(F)(F)F)c1`, in series [1], the IC50 was 0.028 µM.

For `O=C(NCc1ccccc1C(F)(F)F)c1ccc2c(c1)[nH]c(=O)n2Cc1ccccc1Cl`, in series [1], the IC50 came to 0.171 µM.

In the case of `CCS(=O)(=O)Nc1ccc(CNC(=O)c2ccc3c(ccn3Cc3cccc(F)c3)c2)c(C(F)(F)F)c1`, it took 0.37 µM to reach a half-maximal effect in series [3] (EC50). The IC50 in series [1] was 0.003 µM.

On to `COc1ccc(CNC(=O)c2ccc3c(c2)[nH]c(=O)n3Cc2cccc(F)c2)c(C(F)(F)F)c1`, for which the IC50 in series [1] amounted to 0.029 µM. Turning to `O=C(NCc1ccccc1C(F)(F)F)c1ccc2c(c1)[nH]c(=O)n2Cc1ccccn1`, in series [2], the outcome was inactive. The IC50 in series [1] stood at 0.456 µM. Regarding `O=C(NCc1ccccc1C(F)(F)F)c1ccc2c(c1)[nH]c(=O)n2Cc1ccccc1C(F)(F)F`, in series [1], the IC50 is 0.304 µM. Regarding `O=C(NCc1ccccc1C(F)(F)F)c1ccc2c(c1)[nH]c(=O)n2Cc1cc(F)cc(F)c1`, the IC50 in series [1] turned out to be 0.048 µM. Regarding `O=C(NCc1ccccc1C(F)(F)F)c1ccc2c(c1)[nH]c(=O)n2Cc1cccc(F)c1`, a half-maximal response in series [3] (EC50) required 0.12 µM. Besides, the IC50 in series [1] stood at 0.153 µM. As to `O=C(NCc1ccccc1C(F)(F)F)c1ccc2c(c1)[nH]c(=O)n2Cc1ccc(Cl)c(Cl)c1`, in series [1], the IC50 was found to be 1.09 µM.

`O=C(NCc1ccccc1C(F)(F)F)c1ccc2c(c1)[nH]c(=O)n2Cc1ccc(Cl)cc1Cl`: the outcome in series [2] was inactive. The IC50 in series [1] amounted to 0.1 µM.

For the compound `CSCc1ccc(CNC(=O)c2ccc3c(ccn3Cc3cccc(F)c3)c2)c(C(F)(F)F)c1`, the EC50 in series [3] came to 1.43 µM. The IC50 in series [1] came out at 0.006 µM. `Nc1ccc(CNC(=O)c2ccc3c(ccn3Cc3cccc(F)c3)c2)c(C(F)(F)F)c1`: the IC50 in series [1] worked out at 0.007 µM. With `COc1ccccc1Cn1c(=O)[nH]c2cc(C(=O)NCc3ccccc3C(F)(F)F)ccc21`, the outcome in series [2] was inactive. In addition, in series [1], the IC50 was 0.319 µM. `O=C(NCc1ccccc1C(F)(F)F)c1ccc2c(cnn2Cc2cccc(F)c2)c1` gave an EC50 in series [3] of 1.6 µM. In addition, the IC50 in series [1] was 0.036 µM. Consider `O=C(NCc1ccccc1C(F)(F)F)c1ccc2c(c1)[nH]c(=O)n2Cc1cccc(Cl)c1`, for which the IC50 in series [1] worked out at 0.087 µM.

For `O=C(NCc1ccccc1C(F)(F)F)c1ccc2c(ccn2Cc2cccc(F)c2)c1`, the IC50 in series [1] turned out to be 0.321 µM.

These data come from ChEMBL document CHEMBL5053551, “Structure-Based Design of Dual Partial Peroxisome Proliferator-Activated Receptor γ Agonists/Soluble Epoxide Hydrolase Inhibitors” (J Med Chem, 2021).
